Literature values, collected in patent US10773080B2, “External trigeminal nerve stimulation for the acute non-invasive treatment of migraine attacks” (Cefaly Technology Sprl, priority 2017, dated 2020).

Tests used:
migraine [1] = settings: literature data; for Pain freedom at 2 h: percentage of patients
migraine [2] = settings: in vivo

| Compound | Nausea freedom at 2 h (migraine [1]; irrespective of MBS) [%] | Phonophobia freedom at 2 h (migraine [1]; irrespective of MBS) [%] | Photophobia freedom at 2 h (migraine [1]; irrespective of MBS) [%] | Vomiting freedom at 2 h (migraine [1]; irrespective of MBS) [%] | At least one treatment-emergent adverse effect (migraine [1]) [%] | Pain relief at 2 h (migraine [1]) [%] | Use of rescue medication between 2 h and 24 h (migraine [1]) [%] | Pain freedom at 2 h (migraine [1]) [%] | Sustained pain freedom at 24 h (migraine [1]) [%] | Mean pain score reductions at two hours (migraine [2]) [%] | Reduction in mean pain VAS scores at one hour (migraine [2]) [%] |
| --- | --- | --- | --- | --- | --- | --- | --- | --- | --- | --- | --- |
| CN1CCC(C(=O)c2cccc(NC(=O)c3c(F)cc(F)cc3F)n2)CC1 [[B], Lasmiditan] | ~26 | ~30 | ~38 | ~5 | 84 | 65 | 42 | 28 | – | – | – |
| C[C@@H]1[C@H](c2ccccc2)C[C@H](NC(=O)c2cnc3c(c2)C[C@@]2(C3)C(=O)Nc3ncccc32)C(=O)N1CC(F)(F)F [[F], Ubrogepant] | 70.6 | 60.8 | 54.9 | – | 29.4 | 58.8 | – | 25.5 | 21.6 | – | – |
| O=C(O)Cc1ccccc1Nc1c(Cl)cccc1Cl [diclofenac] | – | – | – | – | – | – | – | – | – | 50.5 | 26.8 |
| CNS(=O)(=O)Cc1ccc2[nH]cc(CCN(C)C)c2c1 [sumatriptan] | – | – | – | – | – | – | – | – | – | 40.0 | 17.1 |
